3 compounds from ChEMBL document CHEMBL1134427, “Synthesis and photophysical properties of new fluorinated benzo[c]xanthene dyes as intracellular pH indicators” (Bioorg Med Chem Lett, 2001) can be followed below.

The nature of this data set: pKa value by using fluorescence emission spectra. In kind it is physicochemical.
For orientation: pKa means the negative logarithm of the acid dissociation constant. Low readings indicate a stronger acid or weaker base, high ones a weaker acid or stronger base. Consider `CN(C)c1ccc2c(-c3cc(C(=O)O)ccc3C(=O)O)c3ccc4c(F)c(=O)ccc4c3oc2c1`, for which the pKa stood at 6.4. The figure for `CN(C)c1ccc2c(-c3cc(C(=O)O)ccc3C(=O)O)c3ccc4cc(=O)ccc4c3oc2c1` is 7.5; for `CN(C)c1ccc2c(-c3cc(C(=O)O)ccc3C(=O)O)c3cc(F)c4cc(=O)ccc4c3oc2c1` it is 7.2.
